Values of other authors in patent US20060106070A1, “Novel pyridine-based metal chelators as antiviral agents” (Bioflexis, LLC, priority 2004, published 2006).

Legend:
[1] = biological target: T1, HIV-1 integrase (Human immunodeficiency virus type 1 group M subtype B, UniProt P12497); conditions: result in words
T1 construct: HIV-1 recombinant IN (HIV-1NL 4-3 Integrase); purchased NIH AIDS Reagent program 2959

[2] = biological target: T1, HIV-1 integrase; conditions: result in words; remark: listed apart in the source

For `O=C(O)C(=O)CC(=O)c1cc(OCc2ccccc2)cc(OCc2ccccc2)c1` [L-708, 906], the “inhibition of strand transfer reaction” value [1] is given as “inhibit strand transfer reaction” and the “inhibition of 3′ processing” value [2] is given as “do not inhibit 3′ processing”.
For `O=C(O)C(=O)CC(=O)c1cccn1Cc1ccc(F)cc1` [L-731,988], the “inhibition of strand transfer reaction” value [1] is listed as “inhibit strand transfer reaction” and the “inhibition of 3′ processing” value [2] is listed as “do not inhibit 3′ processing”.
